Experimental data taken from patent publication US20130244929A1 (priority 2010, published 2013).
Like-named read-outs stand apart in the source and are kept apart here.

Legend:
SpsB = biological target: T1, SpsB (Staphylococcus aureus, UniProt P0A070); experiment: Inhibition of SpsB enzyme activity (fluorescence-based assay, bacterial membrane fraction); type: biochemical
T1 construct: using a bacterial membrane fraction as a source of SpsB; from tissue
T1 sequence (P0A070 1-191): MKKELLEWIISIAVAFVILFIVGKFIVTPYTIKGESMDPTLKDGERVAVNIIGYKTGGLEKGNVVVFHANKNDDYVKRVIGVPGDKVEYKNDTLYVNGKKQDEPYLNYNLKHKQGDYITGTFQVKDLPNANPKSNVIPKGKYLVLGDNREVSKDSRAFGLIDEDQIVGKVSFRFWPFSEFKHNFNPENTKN
Experimental: Signal peptidase enzyme activity was measured in a fluorescence-based assay using a bacterial membrane fraction as a source of SpsB (See Bruton et al., 2003, Eur J Med Chem 38:351-356). The SpsB substrate is a synthetic lipopeptide, decanoyl-K(DABCYL)-TPTAKA↓ASKKD-D(EDANS)—NH2 (prepared by JPT Peptide Technologies, Berlin, Germany). Assays were performed with 20 μM peptide substrate (Km≈5 μM) and reactions were initiated with enzyme addition (final protein concentration of 0.6 mg/mL). SpsB mediated cleavage of the peptide substrate was detected as an increase in fluorescence (excitation 340 nm/emission 460 nm).

[1] = system: MB 5393 (COL), a methicillin-resistant S. aureus strain; experiment: Determination of minimum and synergistic inhibitory concentration; type: cell-based; conditions: for SIC: presence of imipenem (4 μg/mL); for MIC: Staphylococcus aureus
Experimental: MB 5393 (COL), a methicillin-resistant S. aureus strain, was inoculated into Trypticase Soy Broth (TSB, BBL) and grown in a humidified incubator for 18 hours with rotary shaking at 220 rpm and kept on ice until used.
A quantity of imipenem (Merck Chemical Collection) was weighed out and dissolved into sterile 10 mM MOPS buffer at pH 7. This solution was diluted to 1600 μg/mL, 200 μg/mL, and 25 μg/mL and filter-sterilized through a 0.45 μm filter. From these solutions, seven 1:2 serial dilutions were prepared using sterile 10 mM MOPS buffer at pH 7. The final concentration ranges tested were 128 to 2 μg/mL, 16 to […], and 2 to 0.03 μg/mL. The solutions were kept refrigerated until used.
Test compounds (EXAMPLES 1-67) were prepared in sterile water or DMSO at a concentration of 3.2 mg/mL. From this solution, 11 serial 1:2 dilutions were prepared using sterile water. The final concentration range tested was 64 to 0.0313 μg/mL. The solutions were kept refrigerated until used.
Two-fold serial dilutions of test compounds were tested in the presence and absence of subinhibitory concentrations of imipenem (4 μg/mL) in 96-well U bottom microliter dishes in microbiological growth media. The plates were inoculated with bacterial cells to a final concentration of ˜5×10^5 CFU/mL. Test plates were incubated stationery at 37° C. for 22-24 hours.
After 22 hours of incubation, the Minimum inhibitory concentrations (MICs) were determined, defined as the lowest concentration of antibiotic that prevented all visible growth in the absence of imipenem. Synergistic inhibitory concentrations (SICs) were determined, defined as the lowest concentration of antibiotic that prevented all visible growth in the presence of imipenen.

[2] = MRSA COL, absence of imipenem, 22 hours, read-out: MIC

Row | Structure (SMILES) | IC50 (SpsB) [nM] | SIC ([1]; MRSA COL, 22 hours) | MIC [1, 2] [µg/mL] | MIC ([1]; MRSA, 22 h) [µg/mL]
1 | C[C@@H]1NC(=O)[C@@H](N(C)C(=O)[C@H](CCCCN)NC(=O)CCNC(=O)c2ccc(CCCCCCCCc3ccccc3)cc2)c2ccc(O)c(c2)-c2cc(ccc2O)C[C@@H](C(=O)O)NC1=O.O=C(O)C(F)(F)F [EXAMPLE 15, (5S)-6-[[(7S,10S,13S)-13-carboxy-3,18-dihydroxy-10-methyl-8,11-dioxo-9,12-diazatricyclo[13.3.1.12,6]icosa-1(19),2(20),3,5,15,17-hexaen-7-yl](methyl)amino]-6-oxo-5-[(3-{[4-(8-phenyloctyl)benzoyl]amino}propanoyl)amino]hexan-1-aminium] | < 10 | G (G: SIC <0.0625) | < 1 | –
2 | CCCCCCCCCc1ccc(-c2ccc(C(=O)NCCC(=O)N[C@@H](CCCCN)C(=O)N(C)[C@@H]3C(=O)N[C@@H](C)C(=O)N[C@H](C(=O)O)Cc4ccc(O)c(c4)-c4cc3ccc4O)cc2C)cc1 [EXAMPLE 58] | < 10 | G (G: SIC <0.0625) | – | < 1
3 | CCCc1ccc(-c2ccc(C(=O)NCCC(=O)N[C@@H](CCCCNC=N)C(=O)N(C)[C@@H]3C(=O)N[C@@H](C)C(=O)N[C@H](C(=O)O)Cc4ccc(O)c(c4)-c4cc3ccc4O)cc2)cc1 [EXAMPLE 48] | < 10 | H (H: SIC 0.062-1) | – | 1 to 8
4 | CCCCCCc1ccc(-c2ccc(C(=O)NCCC(=O)N[C@@H](CCCCN)C(=O)N(C)[C@@H]3C(=O)N[C@@H](C)C(=O)N[C@H](C(=O)O)Cc4ccc(O)c(c4)-c4cc3ccc4O)cc2)cc1 [EXAMPLE 31] | < 10 | G (G: SIC <0.0625) | – | < 1
5 | CCCCCCCc1ccc(-c2ccc(C(=O)NCCC(=O)N[C@@H](CCCCN)C(=O)N(C)[C@@H]3C(=O)N[C@@H](C)C(=O)N[C@H](C(=O)O)Cc4ccc(O)c(c4)-c4cc3ccc4O)cc2)cc1 [EXAMPLE 29] | < 10 | G (G: SIC <0.0625) | – | < 1
6 | CCCCCCCCCc1ccc(-c2ccc(C(=O)NCCC(=O)N[C@@H](CCCCN)C(=O)N(C)[C@@H]3C(=O)N[C@@H](C)C(=O)N[C@H](C(=O)O)Cc4ccc(O)c(c4)-c4cc3ccc4O)c(C)c2)cc1 [EXAMPLE 43] | < 10 | G (G: SIC <0.0625) | – | < 1
7 | CCCCCCCCCc1ccc(-c2nc(C(=O)NCCC(=O)N[C@@H](CCCCN)C(=O)N(C)[C@@H]3C(=O)N[C@@H](C)C(=O)N[C@H](C(=O)O)Cc4ccc(O)c(c4)-c4cc3ccc4O)cs2)cc1 [EXAMPLE 41] | < 10 | G (G: SIC <0.0625) | – | < 1
8 | CCCc1ccc(-c2ccc(C(=O)NCCC(=O)N3CCC[C@H]3C(=O)N(C)[C@@H]3C(=O)N[C@@H](C)C(=O)N[C@H](C(=O)O)Cc4ccc(O)c(c4)-c4cc3ccc4O)cc2)cc1 [EXAMPLE 12, (8S,11S,14S)-3,18-dihydroxy-11-methyl-14-(methyl{[(2S)-1-(3-{[(4′-propylbiphenyl-4-yl)carbonyl]amino}propanoyl)pyrrolidin-2-yl]carbonyl}amino)-10,13-dioxo-9,12-diazatricyclo[13.3.1.1^2,6]icosa-1(19),2(20),3,5,15,17-hexaene-8-carboxylic acid] | 10 to 50 | H (H: SIC 0.062-1) | > 8 | –
9 | CCCCCCCCCCc1ccc2cc(C(=O)NCCC(=O)N3CC[C@H]3C(=O)N(C)[C@@H]3C(=O)N[C@@H](C)C(=O)N[C@H](C(=O)O)Cc4ccc(O)c(c4)-c4cc3ccc4O)ccc2c1 [EXAMPLE 20, (8S,11S,14S)-3,18-dihydroxy-11-methyl-14-(methyl[(2R)-1-{3-[(6-decyl-2-naphthoyl)amino]propanoylazetidin-2-yl]carbonyl}amino)-10,13-dioxo-9,12-diazatricyclo[13.3.1.1^2,6]icosa-1(19),2(20),3,5,15,17-hexaene-8-carboxylic acid] | < 10 | G (G: SIC <0.0625) | 1 to 8 | –
10 | C[C@@H]1NC(=O)[C@@H](N(C)C(=O)[C@H](CCCCN)NC(=O)CCNC(=O)c2coc(CCCCCCCCc3ccccc3)n2)c2ccc(O)c(c2)-c2cc(ccc2O)C[C@@H](C(=O)O)NC1=O [EXAMPLE 64] | 10 to 50 | G (G: SIC <0.0625) | – | < 1
11 | CCCCCCCCCCc1ccc2cc(C(=O)NCCC(=O)N3CCCC3C(=O)N(C)[C@@H]3C(=O)N[C@@H](C)C(=O)N[C@H](C(=O)O)Cc4ccc(O)c(c4)-c4cc3ccc4O)ccc2c1 (stereo in doubt) [EXAMPLE 14, (8S,11S,14S)-3,18-dihydroxy-11-methyl-14-(methyl{[(2R)-1-{3-[(6-decyl-2-naphthoyl)amino]propanoyl}pyrrolidin-2-yl]carbonyl}amino)-10,13-dioxo-9,12-diazatricyclo[13.3.1.1^2,6]icosa-1(19),2(20),3,5,15,17-hexaene-8-carboxylic acid] | < 10 | G (G: SIC <0.0625) | < 1 | –
12 | CCCc1ccc(-c2ccc(C(=O)NCCC(=O)NC(CCCCN)C(=O)N(C)[C@@H]3C(=O)N[C@@H](C)C(=O)N[C@H](C(=O)O)Cc4cccc(c4)-c4cccc3c4)cc2)cc1.O=C(O)C(F)(F)F (stereo partly drawn) [EXAMPLE 9, 6-[[(7S,10S,13S)-13-carboxy-10-methyl-8,11-dioxo-9,12-diazatricyclo[13.3.1.1^2,6]icosa-1(19),2(20),3,5,15,17-hexaen-7-yl](methyl)amino]-6-oxo-5-[(3-{[(4′-propylbiphenyl-4-yl)carbonyl]amino}propanoyl)amino]hexan-1-aminium trifluoroacetate] | 10 to 50 | H (H: SIC 0.062-1) | > 8 | –
13 | CCCCCCCCCCc1ccc2cc(C(=O)NCCC(=O)N[C@@H](CCCCN)C(=O)N(C)[C@@H]3C(=O)N[C@@H](C)C(=O)N[C@H](C(=O)O)Cc4ccc(O)c(c4)-c4cc3ccc4O)ccc2c1.O=C(O)C(F)(F)F [EXAMPLE 17, (5S)-6-[[(7S,10S,13S)-13-carboxy-3,18-dihydroxy-10-methyl-8,11-dioxo-9,12-diazatricyclo[13.3.1.1^2,6]icosa-1(19),2(20),3,5,15,17-hexaen-7-yl](methyl)amino]-5-({3-[(6-decyl-2-naphthoyl)amino]propanoyl}amino)-6-oxohexan-1-aminium trifluoroacetate] | < 10 | G (G: SIC <0.0625) | < 1 | –
14 | CCCCCCCCCCc1ccc2nc(C(=O)NCCC(=O)N[C@@H](CCCCN)C(=O)N(C)[C@@H]3C(=O)N[C@@H](C)C(=O)N[C@H](C(=O)O)Cc4ccc(O)c(c4)-c4cc3ccc4O)ccc2c1 [EXAMPLE 62] | 10 to 50 | G (G: SIC <0.0625) | < 1 | –
15 | CCCCCc1ccc(-c2ccc(C(=O)NCCC(=O)N[C@@H](CCCCN)C(=O)N(C)[C@@H]3C(=O)N[C@@H](C)C(=O)N[C@H](C(=O)O)Cc4ccc(O)c(c4)-c4cc3ccc4O)cc2)cc1 [EXAMPLE 35] | < 10 | G (G: SIC <0.0625) | – | < 1
16 | CCCCCCCCCc1ccc(-c2ccc(C(=O)NCCC(=O)N3CCC[C@H]3C(=O)N(C)[C@@H]3C(=O)N[C@@H](C)C(=O)N[C@H](C(=O)O)Cc4ccc(O)c(c4)-c4cc3ccc4O)cc2)cc1 [EXAMPLE 18, (8S,11S,14S)-3,18-dihydroxy-11-methyl-14-(methyl{[(2)-1-(3-{[(4′-nonylbiphenyl-4-yl)carbonyl]amino}propanoyl)pyrrolidin-2-yl]carbonyl}amino)-10,13-dioxo-9,12-diazatricyclo[13.3.1.1^2,6]icosa-1(19),2(20),3,5,15,17-hexaene-8-carboxylic acid] | < 10 | H (H: SIC 0.062-1) | 1 to 8 | –
17 | CC(C)CCCC(C)CCc1ccc(-c2ccc(C(=O)NCCC(=O)N[C@@H](CCCCN)C(=O)N(C)[C@@H]3C(=O)N[C@@H](C)C(=O)N[C@H](C(=O)O)Cc4ccc(O)c(c4)-c4cc3ccc4O)cc2)cc1 (stereo partly drawn) [EXAMPLE 25] | < 10 | G (G: SIC <0.0625) | – | < 1
18 | C[C@@H]1NC(=O)[C@@H](N(C)C(=O)[C@H](CCCCN)NC(=O)CCNC(=O)c2ccc(-c3ccc(CC4CCCCC4)cc3)cc2)c2ccc(O)c(c2)-c2cc(ccc2O)C[C@@H](C(=O)O)NC1=O [EXAMPLE 27] | < 10 | G (G: SIC <0.0625) | – | < 1
